Reference: paper PMC5618191 (Toxins, 2017)
Where two headings read alike, the source gives them in different places.

Test system: NIH/3T3 murine non-malignant fibroblasts
Test: Cell viability assay (MTT, 72 h)
Assay type: cell-based, mouse
Protocol: For the cell lines KB-3-1 and SW480 2 × 10^3 cells, for NIH/3T3, CT-26, HaCaT, and GH354 cells 3 × 10^3 cells and for ME-180 and SW620 cells 4 × 10^3 cells were seeded into 96-well pates and incubated at 37 °C (5% CO2) overnight. […] For higher cell confluency, NIH/3T3, CT-26, HaCaT, KB-3-1, and SW480 cells were grown to a cell density of approximately 50–60% before treatment. […] The percentage of viable cells was detected after incubation with 3-(4,5-dimethylthiazol-2-yl)-2,5-diphenyltetrazolium bromide (MTT) at 37 °C for 1–4 h, depending on the cell line, according to the user manual (EZ4U, Biomedica, Vienna, Austria). […] All experiments were conducted using full-growth media with 10% FBS in triplicate and repeated three times. The cell confluency was analyzed by Image J 1.50i (NIH, New York, NY, USA).

[1] = NIH/3T3, sparse (5–10% confluency), 72 h

## beauvericin
1 µM, higher density (50–60%), murine models
  Viability of non-malignant cells: no reduction of viability
NIH-3T3, higher density (50–60% confluency), 72 h, read-out: IC50 value
  IC50: 9.4 µM
[1]
  Mean IC25 ± SD: 1.2 ± 0.6 µM
  Mean IC75 ± SD: 6.5 ± 0.7 µM
NIH/3T3, sparse (5–10% confluency), 72 h, read-out: Mean IC50 ± SD
  IC50: 3.1 ± 0.2 µM
Sparse conditions
  IC50 higher for non-malignant NIH/3T3 as compared to CT-26: 1.7 fold
  IC75 higher for non-malignant NIH/3T3 as compared to CT-26: 2.4 fold
